Our source for the log titer change, negative = inhibition values is PubChem BioAssay AID2065 (Southern Research Specialized Biocontainment Screening …, 2009).

Activity calls are given as the source filed them. How the calls were made is not given here.

The assay deals with West Nile virus-infected cells, virus titer reduction. The assay is described as follows: WNV titer decrease in infected cells – cell-based, synthesized compounds (AID 2065). As to conditions: at 20 µM (top of the series).

For the molecule `O=C(CSc1nc2ccccc2c(=O)n1-c1ccc(F)cc1F)Nc1ccc2c(c1)CCC2`, the log titer change, negative = inhibition was -3.82.

With `CCOC(=O)C1(Cc2ccccc2C(F)(F)F)CCN(C2CCN(C(C)C)CC2)CC1`, the log titer change, negative = inhibition was 1.18 (inactive).

As for `CCN(CC)CCCNC(=S)N1CCN(c2nc(-c3ccccc3)cs2)CC1`, the log titer change, negative = inhibition was -5.48.

On to `CN(C)CCCN1c2ccc([N+](=O)[O-])cc2CCc2cc([N+](=O)[O-])ccc21`, for which the log titer change, negative = inhibition was -3.82.

With `COc1ccc(-c2csc(N(CCCN(C)C)C(=O)c3ccccc3C)n2)cc1`, the log titer change, negative = inhibition is -0.48 (inactive).

Turning to `COc1ccc(-c2csc(N(CCCN(C)C)C(=O)c3ccccc3Cl)n2)cc1`, the log titer change, negative = inhibition is -3.82.

As to `OC1c2cc(Br)ccc2N=C2CCCN21` (stereo not given), the log titer change, negative = inhibition was -5.53.

Consider `O=C(CSc1nc2ccccc2c(=O)n1-c1ccc(F)cc1)Nc1ccc2c(c1)CCC2`, for which the log titer change, negative = inhibition is -4.18.

For the molecule `O=C(CSc1nc2ccccc2c(=O)n1-c1ccc(F)cc1F)Nc1ccc(N2CCOCC2)cc1`, the log titer change, negative = inhibition was -4.15.

Turning to `CN(C)CCCNC(=S)N1CCN(c2nc(-c3ccccc3)cs2)CC1`, the log titer change, negative = inhibition is -2.32.
